Experimental data: EP1142583A1, “ANTITUMOR AGENTS” (TEIKOKU HORMONE MFG. CO., LTD., priority 1999, dated 2000)
Read-outs that look alike come from different tables or passages of the source.

Test system: WiDr cells
Assay: Cell death rate by flow cytometry (PI DNA content, EPICS XL)
Format: cell-based, human
Conditions: for Cell death rate (%): WiDr cells
Protocol: DMEM medium containing 10% fetal bovine serum was placed in plastic culture dishes having a diameter of 6 cm. Then, WiDr cells (obtained from HSRRB), which were human colon carcinoma cells, were inoculated thereinto so as to give a density of 2.0 x 10^5 cells/3 mL. These culture dishes were incubated at 37°C for 48 hours. Moreover, 1/1000 volume of PD98059 (with a final concentration of 50 µmol/L) or solvent (DMSO) was added thereto, followed by incubation for 12 hours. Thereafter, 1/1000 volume of TZT-1027 (with a final concentration of 10 nmol/L) or solvent (a lactic acid buffer) was added thereto. Where vincristine was used as the microtubule-interfering agent, 1/1000 volume of vincristine sulfate (with a final concentration of 100 nmol/L) or solvent (DMSO) was added thereto. Twenty-four (24), 48, 72 or 96 hours after the addition of TZT-1027, vincristine or solvent, cells were collected and worked up according to the following procedure. With respect to a solvent control group and a group treated with PD98059 alone, cells were similarly collected and worked up after 96 hours' incubation.
First of all, all of the culture medium was transferred to a centrifuge tube. The remaining cells were suspended by adding 1 mL of a 0.05% trypsin/phosphate-buffered physiological saline (PBS)-EDTA solution to the culture dish and incubating it at 37°C for 5 minutes, and combined with the above culture medium. The centrifuge tube was centrifuged at 1,500 rpm for 5 minutes. Then, the precipitate was resuspended in 1 mL of PBS, transferred to a light-shielding microtube, and centrifuged at 2,500 rpm for 5 minutes. After the precipitate was suspended in 60 µL of PBS, 140 µL of 100% ethanol was added thereto and the resulting suspension was stirred and allowed to stand at -20°C overnight or longer. Moreover, the suspension was centrifuged at 2,500 rpm for 5 minutes, and 100 µL of a phosphate-citric acid buffer (0.2M […] : 0.1M citric acid = 24:1) was added to the precipitate, followed by stirring (at 500 rpm) at room temperature for 30 minutes. After suspension was centrifuged at 2,500 rpm for 5 minutes, 100 µL of PBS and 1 µL of an RNase solution (10 mg/mL (PBS); obtained from SIGMA) was added to the precipitate, followed by incubation at 37°C for 30 minutes. Thereafter, 880 µL of PBS and 20 µL of a propidium iodide (hereinafter referred to as "PI") solution (1 mg/mL (PBS); obtained from Wako Pure Chemical Industries Ltd.) were added thereto and reacted at room temperature for 30 minutes with stirring. The resulting reaction mixture was allowed to stand in the dark under cooling with ice until it was used for measurement.
The cell death rate was measured and analyzed by means of an EPICS XL system (manufactured by COULTER). Prior to analysis, the EPICS XL system was checked by means of DNAcheck (manufactured by COULTER).
Next, a protocol used for calculating the cell death rate by using the DNA content as a parameter was constructed. In this protocol, FS (forward scatter), SS (side scatter) and FL3 (PI fluorescence) were selected as parameters, and the number of analyzed cells was 30,000. Furthermore, by measuring a control sample of cells to be actually measured, the sensitivity of the detector and regions were preset with consideration for each parameter. Measurements were made by pipetting a sample at several times, transferring it into an exclusive tube, and setting it in the main unit of the EPICS XL system. The cell death rate was calculated by use of histograms in the protocol, which were constructed by removing doublets and triplets from data incorporating dead cells.

[1] = Homo sapiens, WiDr, 96 h, read-out: Cell death rate (%)
[2] = Homo sapiens, WiDr, 24 h, read-out: Cell death rate (%)
[3] = Homo sapiens, WiDr, 48 h, read-out: Cell death rate (%)

## COc1cccc(-c2cc(=O)c3ccccc3o2)c1N [PD98059, 2-(2-amino-3-methoxyphenyl)-4H-chromen-4-one]
[1]
  cytotoxicity at 50 µM: 8.9%

## CC[C@H](C)[C@@H]([C@@H](CC(=O)N1CCC[C@H]1[C@H](OC)[C@@H](C)C(=O)NCCc1ccccc1)OC)N(C)C(=O)[C@@H](NC(=O)[C@H](C(C)C)N(C)C)C(C)C [TZT-1027, N^2-(N,N-Dimethyl-L-valyl)-N-[(1S,2R)-2-methoxy-4-[(2S)-2-[(1R,2R)-1-methoxy-2-methyl-3-oxo-3-[(2-phenylethyl)-amino]propyl]-1-pyrrolidinyl]-1-[(S)-1-methylpropyl]-4-oxobutyl]-N-methyl-L-valinamide]
[2]
  cytotoxicity at 0.01 µM: 3.8%
[3]
  cytotoxicity at 0.01 µM: 9.2%
[1]
  cytotoxicity at 0.01 µM: 23.3%
TZT-1027 10 nmol/L combined with PD98059 50 µmol/L (added 12 hours before), time 24
  Cell death rate (%): 10.5%
TZT-1027 10 nmol/L combined with PD98059 50 µmol/L (added 12 hours before), time 48
  Cell death rate (%): 35.9%
TZT-1027 10 nmol/L combined with PD98059 50 µmol/L (added 12 hours before), time 96
  Cell death rate (%): 48.1%

## CC[C@]1(O)C[C@H]2CN(CCc3c([nH]c4ccccc34)[C@@](C(=O)OC)(c3cc4c(cc3OC)N(C=O)[C@H]3[C@@](O)(C(=O)OC)[C@H](OC(C)=O)[C@]5(CC)C=CCN6CC[C@]43[C@@H]65)C2)C1 [Vincristine, vincristine]
[2]
  cytotoxicity at 0.1 µM: 4.5%
[3]
  cytotoxicity at 0.1 µM: 8.4%
Homo sapiens, WiDr, 72 h, read-out: Cell death rate (%)
  cytotoxicity at 0.1 µM: 23.3%
Vincristine 100 nmol/L combined with PD98059 50 µmol/L (added 12 hours before), time 24
  Cell death rate (%): 12.1%
Vincristine 100 nmol/L combined with PD98059 50 µmol/L (added 12 hours before), time 48
  Cell death rate (%): 37.4%
Vincristine 100 nmol/L combined with PD98059 50 µmol/L (added 12 hours before), time 72
  Cell death rate (%): 58.7%
